Biological target: T1, P protein from T. maritima (Thermotoga maritima, UniProt Q9X1H4)
T1 construct: GST (cleaved yes); made in house; host or cells: E. coli BL21(DE3)pLysS
T1 sequence (Q9X1H4 1-117): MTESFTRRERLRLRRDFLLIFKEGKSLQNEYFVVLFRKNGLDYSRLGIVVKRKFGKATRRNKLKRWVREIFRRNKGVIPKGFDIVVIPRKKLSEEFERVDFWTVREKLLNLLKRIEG
Experiment: Biolayer interferometry binding to immobilized His-tagged P protein
Details: BLI, P protein on Ni-NTA, 1:1 Langmuir model
Protocol: Immobilization of the His-tagged P protein from T. maritima at 0.05 mg/ml (3.4 μM) was performed on Ni-NTA biosensors. For the initial binding tests to the P protein, a compound concentration of 1 mM was used. Periods for each step of the assay were as follows: immobilization (400 s), wash (100 s), baseline establishment (100s), association (250 s), dissociation (250 s). For each titration curve, […] were used corresponding to the 125, 62.5, 31.25, 15.6 and 7.8 μM compound concentrations. Control biosensors were used to subtract non-specific binding of compounds to the biosensor surface. […] Kinetic binding parameters were calculated using Data Analysis 8.2 (ForteBio, Inc.). […]
Figure 5. […] Association and dissociation of the 5′ RNA leader to the P protein (TmP) is measured over time. […] P protein was immobilized on Ni-NTA biosensors after which its association and dissociation from indicated compounds were monitored. […] (C) Location of purpurin (green) on the T. maritima P protein as determined by X-ray crystallography (PDB code: 6MAX; see Supplementary Figure S19 and Supplementary Table S2). […]
Supplementary Figure 15. […] The pre-tRNA in buffer HAAMD (20 mM HEPES pH 7.4, 100 mM ammonium acetate, 10 mM MgCl2, 5% DMSO or 5% PEG 200) was measured against RNase P in concentrations ranging from 62.5 to 7.8 nM in a two-fold dilution series. […]

`O=C1c2ccccc2C(=O)c2c(O)c(O)cc(O)c21` [Purpurin, 1,2,4-trihydroxyanthraquinone] gave a Kd of 6.8 µM.

— publication PMC6614837 (Nucleic Acids Research, 2019)
